From patent publication US20240041023A1, “COMPOSITION AND METHOD OF PRESERVING VIABILITY OF CELL IN A LOW TEMPERATURE” (THE UNITED STATES OF AMERICA, AS REPRESENTED BY THE …, priority 2020, published 2024)
Entries after “also recorded” stand apart in the source; their conditions may differ.

Assays:
[1] = test system: rat corneal endothelial cells; assay: Cold preservation of rat cornea: endothelial cell mortality (PI positive cells) and immunofluorescence staining; assay type: cell-based; settings: 6-month-old rat cornea
Method: After injection of 0.5 μL C6 solution (10 μM/μL in goat serum solvent) into the anterior chamber of the eye through the limbal stroma. After 90 minutes, the cornea was taken and cold stored in a corneal preservation solution. After cold storage for 3 weeks and 4 weeks, the cold storage results were evaluated by immunofluorescence staining.
The corneal preservation solution of this example is the novel corneal preservation solution prepared in Example 3, with 20 μM C6 and the protease inhibitor mixture Pi (as described in WO2019/040359A1) added, and the final concentrations of the components in the protease inhibitor mixture Pi in the cold preservation solution are respectively: pepstatin 1 μM; leupeptin 2 μM; bestatin 5 μM; […] 0.5 μM; aprotinin 0.08 μM; AEBSF 100 μM.
0.5 μL of Apigenin solution (concentration 4 μM/μL, in goat serum solvent) was injected into the anterior chamber through the limbal stroma, and 20 minutes later, the cornea was removed and stored in the novel preservation solution prepared in Example 3 (with 4 μM Apigenin and Pi previously added). After cold storage for 3 weeks and 4 weeks, the cold storage results were evaluated by immunofluorescence staining.

mice pancreatic islets = assay: Mouse pancreatic islets stored at 4° C. versus 1640 culture solution; assay type: cell-based; settings: mice pancreatic islets stored at 4° C.; C6 and Apigenin added to the novel preservation solution (MM)
Method: In another example, mice pancreatic islets were extracted and stored at 4° C. in cold storage. The conventional 1640 culture solution which is commonly used is used as a control group.

FOXO1 [2] = assay: FOXO1 nuclear entry in corneal endothelial cells after anterior chamber injection (immunofluorescence); assay type: in vivo, rat; settings: 6-month-old rats
mouse pancreatic islets = assay: Cold survival of mouse pancreatic islets in preservation solutions; assay type: cell-based; settings: N-EM added into UW solution, 2-D08 or ginkgolic acid added into HS solution
Method: (§1) N-EM and protease inhibitors are added into HS to make HS+.

FOXO1 [3] = assay: FOXO1-dependent survival pathway and FOXO1 nuclear entry in cold stored mouse islets; assay type: cell-based; settings: mouse pancreatic islets; inhibitor added to HS solution
Method: as §1

human islets = assay: Cold storage of human islets; assay type: cell-based; settings: prolonged cold storage
[4] = after anterior chamber injection (C6 20 μM/μL, Apigenin 4 μM/μL, goat serum solvent), before cold stimulation
[5] = after anterior chamber injection and cold stimulation

Compound | corneal endothelial cell death, in words ([1]; cold preservation 3 weeks) | islet cell death (mice pancreatic islets) | FOXO1 nucleus entry in corneal endothelial cells (FOXO1 [2]; [4]) | FOXO1 nucleus entry in corneal endothelial cells (FOXO1 [2]; [5]) | islet cold survival / islet cell death (mouse pancreatic islets) | cold-induced FOXO1 nuclear entry (FOXO1 [3]) | other results
O=c1cc(-c2ccc(O)cc2)oc2cc(O)cc(O)c12 [Apigenin] | decreased mortality | further reduced the number of dead cells | did not cause FOXO1 to enter nucleus | activated FOXO1 to enter the nucleus |  |  | corneal endothelial cell death, in words ([1]; cold storage 4 weeks): significantly reduced; corneal endothelium structure (hexagonal structure, F-actin, nuclei) ([1]; cold storage 4 weeks (28 days, 4° C.)): largely intact endothelium; FOXO1 nucleus entry in corneal endothelial cells (FOXO1 [2]; after cold stimulation and rewarming): weak nuclear entering effect is still maintained
ginkgolic acid |  |  |  |  | islet cell death became severe | repressed | 
CCCCCCCCCCCCC/C=C/[C@@H](O)[C@H](CO)NC(=O)CCCCC [C6, C6 ceramide] | reduction in the number of dead corneal endothelial cells | further reduced the number of dead cells | activate FOXO1 nucleus entry | nucleus entry signal was enhanced |  |  | 
O=c1cc(-c2ccc(O)c(O)c2O)oc2ccccc12 [2-D08] |  |  |  |  | islet cell death became severe | repressed | 
CCN1C(=O)C=CC1=O [N-Ethylmaleimide] |  |  |  |  | enables longer term cold storage; also recorded: islet cold survival is improved |  | outcome of cold storage of human islets (human islets): enables longer term cold storage
